Experimental data published in patent publication US20030083325A1, “Serotonin antagonists” (priority 1992, published 2003).
pIC50: −log10 of the molar value. Where a name gives a salt, the structure may show the parent alone.

target: T1, 5HT2 receptor (Rattus norvegicus, UniProt P14842); assay: spiroperidol binding test (5HT2 binding affinity); settings: [3H] spiroperidol binding; concentration of compound at 50% inhibition
T1 construct: from tissue
Source text: As noted above, the compounds of Formula I are serotonin 5HT2 antagonists. […] In this test, 5HT2 receptors are exposed to both [^3H] spiroperidol, (a substance known to have a specific affinity for the receptor) and the test compound. The extent to which there is a decrease in binding of the [^3H] spiroperidol to the receptor is indicative of the affinity of the test compound for the 5HT2 receptor.
d) any reference to “5HT2 binding affinity” refers to the spiroperidol binding test as described by Peroutka et al., in Mol.Pharmacol., Vol. 16, pages 687-699 (1979).

T1 sequence (P14842 whole entry): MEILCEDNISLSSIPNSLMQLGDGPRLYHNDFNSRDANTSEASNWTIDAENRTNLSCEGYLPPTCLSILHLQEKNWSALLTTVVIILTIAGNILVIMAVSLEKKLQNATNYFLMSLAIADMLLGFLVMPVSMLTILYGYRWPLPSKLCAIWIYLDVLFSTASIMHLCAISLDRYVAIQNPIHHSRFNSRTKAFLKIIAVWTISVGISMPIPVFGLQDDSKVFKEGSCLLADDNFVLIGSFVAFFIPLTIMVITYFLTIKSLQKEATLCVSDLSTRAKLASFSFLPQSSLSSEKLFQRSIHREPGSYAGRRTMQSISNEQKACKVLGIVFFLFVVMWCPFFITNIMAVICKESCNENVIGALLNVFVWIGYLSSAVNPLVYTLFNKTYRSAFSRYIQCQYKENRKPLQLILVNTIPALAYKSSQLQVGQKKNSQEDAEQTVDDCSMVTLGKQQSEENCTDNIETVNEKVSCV

| Compound | pIC50 |
| --- | --- |
| O=C(CN1CCC(CN2C(=O)[C@@H]3CCCC[C@H]3C2=O)CC1)c1ccc(F)cc1 (relative stereo) [Example 5, trans-2-[[1-[2-(4-fluorophenyl)-2-oxoethyl]-4-piperidinyl]methyl]hexahydro-1H-isoindole-1,3(2H)-dione monohydrochloride] | 7.12 |
| O=C(CN1CCC(CN2C(=O)C3C4C=CC(CC4)C3C2=O)CC1)c1ccc(F)cc1 (stereo not drawn) [Example 1, 2-[[1-[2-(4-fluorophenyl)-2-oxoethyl]-4-piperidinyl]methyl]-3a,4,7,7a-tetrahydro-4,7-ethano-1H-isoindole-1,3(2H)-dione monohydrochloride] | 7.32 |
| O=C(CN1CCC(CN2C(=O)C3CC=CCC3C2=O)CC1)c1ccc(F)cc1 (stereo not drawn) [Example 3, 2-[[1-[2-(4-fluorophenyl)-2-oxoethyl]-4-piperidinyl]methyl]-3a,4,7,7a-tetrahydro-1H-isoindole-1,3(2H)-dione monohydrohydrochloride] | 6.69 |
| O=C(CN1CCC(CN2C(=O)[C@H]3CCCC[C@H]3C2=O)CC1)c1ccc(F)cc1 [Example 4, cis-2-[[1-[2-(4-fluorophenyl)-2-oxoethyl]-4-piperidinyl]methyl]hexahydro-1H-isoindole-1,3(2H)-dione monohydrochloride] | 6.79 |
| O=C(CN1CCC(CN2C(=O)C3C4C=CC(C4)C3C2=O)CC1)c1ccc(F)cc1 (stereo not drawn) [Example 6, 2-[[1-[2-(4-fluorophenyl)-2-oxoethyl]-4-piperidinyl]methyl]-3a,4,7,7a-tetrahydro-4,7-methano-1H-isoindole-1,3(2H)-dione monohydrochloride] | 6.76 |
| O=C(CN1CCC(CN2C(=O)C(c3ccccc3)=C(c3ccccc3)C2=O)CC1)c1ccc(F)cc1 [Example 7, 1-[[1-[2-(4-fluorophenyl)-2-oxoethyl]-4-piperidinyl]methyl]-3,4-diphenyl-1H-pyrrole-2,5-dione monohydrohydrochloride] | 6.51 |
| O=C(CN1CCC(CN2C(=O)c3cccc4cccc(c34)C2=O)CC1)c1ccc(F)cc1 [Example 9, 2-[[1-[2-(4-fluorophenyl)-2-oxoethyl]-4-piperidinyl]methyl]-1H-benz[de]isoquinoline-1,3(2H)-dione monohydrochloride] | 7.02 |
| O=C(CN1CCC(CN2C(=O)c3ccccc3C2=O)CC1)c1ccccc1 [Example 10, 2-[[1-[2-phenyl-2-oxoethyl]-4-piperidinyl]methyl]-1H-isoindole-1,3(2H)-dione monohydrochloride] | 7.89 |

More lines, now with the values ahead:

| pIC50 | Compound |
| --- | --- |
| 7.89 | O=C(CN1CCC(CN2C(=O)c3ccccc3C2=O)CC1)c1ccc(F)cc1 [Example 2, 2-[[1-[2-(4-fluorophenyl)-2-oxoethyl]-4-piperidinyl]methyl]-1H-isoindole-1,3(2H)-dione] |
| 6.94 | Cc1ccc2c(c1)C(=O)N(CC1CCN(CC(=O)c3ccc(F)cc3)CC1)C2=O [Example 8, 2-[[1-[2-(4-fluorophenyl)-2-oxoethyl]-4-piperidinyl]methyl]-5-methyl-1H-isoindole-1,3(2H)-dione monohydrochloride] |
| 7.48 | O=C(CN1CCC(CN2C(=O)c3cccc(F)c3C2=O)CC1)c1ccc(F)cc1 [Example 11, 2-[[1-[2-(4-fluorophenyl)-2-oxoethyl]-4-piperidinyl]methyl]-4-fluoro-1H-isoindole-1,3(2H)-dione monohydrochloride] |
| 7.83 | O=C(CN1CCC(Cn2c(=O)[nH]c3ccccc3c2=O)CC1)c1ccc(F)cc1 [Example 12, 2-[[1-[2-(4-fluorophenyl)-2-oxoethyl]-4-piperidinyl]methyl]-benzoyleneurea] |

test system: thrombus formation; assay: not given; settings: canine models; cited from earlier work

| Compound | prevention of thrombus formation |
| --- | --- |
| O=C(c1ccc(F)cc1)C1CCN(CCn2c(=O)[nH]c3ccccc3c2=O)CC1 [Ketanserin] | extremely effective in preventing thrombus formation |

test system: preference for alcohol and cocaine; assay: not given; settings: rodent model of drug abuse; cited from earlier work

| Compound | preference for alcohol and cocaine |
| --- | --- |
| Cc1nc2sccn2c(=O)c1CCN1CCC(=C(c2ccc(F)cc2)c2ccc(F)cc2)CC1 [ritanserin] | abolished the preference for both alcohol and cocaine |

test system: coronary vessel constriction; assay: not given; settings: patients with stable angina; cited from earlier work

| Compound | coronary vessel constriction |
| --- | --- |
| O=C(c1ccc(F)cc1)C1CCN(CCn2c(=O)[nH]c3ccccc3c2=O)CC1 [Ketanserin] | blocked coronary vessel constriction |
